Assay results: patent publication US8551999B2, “Heterocyclic compound and pharmaceutical composition thereof” (Otsuka Pharmaceutical Co., Ltd., priority 2007, dated 2013)

Row | SMILES | melting point
1 | COc1ccc(CNC2CCN(C(=O)c3cc4cc(Oc5ccc(NC(=O)c6ccc(C(F)(F)F)cc6)cn5)ccc4n3C)CC2)cc1 [Example 233, N-[6-(2-{4-[(4-Methoxyphenyl)methylamino]piperidine-1-carbonyl}-1-methyl-1H-indol-5-yloxy)pyridin-3-yl]-4-trifluoromethyl-benzamide] | 139 to 142 °C
2 | Br.Cn1c(C(=O)N2CCN(Cc3ccc(F)cc3)CC2)cc2cc(Oc3ccc(NC(=O)c4ccc(C(F)(F)F)cc4)cn3)ccc21 [Example 551, N-(6-{2-[4-(4-Fluorobenzyl)piperazine-1-carbonyl]-1-methyl-1H-indol-5-yloxy}pyridin-3-yl)-4-trifluoromethylbenzamide hydrobromide] | 254 to 257 °C
3 | Br.Cn1c(C(=O)N2CCN(Cc3ccc4c(c3)OCO4)CC2)cc2cc(Oc3ccc(NC(=O)c4ccc(C(F)(F)F)cc4)cn3)ccc21 [Example 8, N-{6-[2-(4-Benzo[1,3]dioxol-5-ylmethylpiperazine-1-carbonyl)-1-methyl-1H-indol-5-yloxy]pyridin-3-yl}-4-trifluoromethylbenzamide hydrobromide] | 240 to 244 °C
4 | Br.Cn1c(C(=O)N2CCN(Cc3ccc(OCCF)cc3)CC2)cc2cc(Oc3ccc(NC(=O)c4ccc(Cl)c(Cl)c4)cn3)ccc21 [Example 409, 3,4-Dichloro-N-[6-(2-{4-[4-(2-fluoroethoxy)benzyl]piperazine-1-carbonyl}-1-methyl-1H-indol-5-yloxy)pyridin-3-yl]benzamide hydrobromide] | 240 to 243 °C
5 | Br.CN(c1ccc(C(F)(F)F)cc1)c1ccc(Oc2ccc3c(c2)cc(C(=O)N2CCN(Cc4ccc5c(c4)OCO5)CC2)n3C)nc1 [Example 335, (4-Benzo[1,3]dioxol-5-ylmethylpiperazin-1-yl)(1-methyl-5-{5-[methyl(4-trifluoromethylphenyl)amino]pyridin-2-yloxy}-1H-indol-2-yl)methanone hydrobromide] | 211 to 215 °C
6 | Cc1cc(Oc2ccc3cc(C(=O)N4CCN(Cc5ccc(OC(C)C)cc5)CC4)n(C)c3c2)ncc1N(C)S(=O)(=O)c1ccc(Cl)c(Cl)c1 [Example 313, 3,4-Dichloro-N-(6-{2-[4-(4-isopropoxybenzyl)piperazine-1-carbonyl]-1-methyl-1H-indol-6-yloxy}-4-methylpyridin-3-yl)-N-methylbenzenesulfonamide] | 151 to 151.6 °C
7 | Br.CN(C(=O)c1ccc(C(F)(F)F)cc1)c1ccc(Oc2cccc3cc(C(=O)N4CCN(Cc5ccc(C#N)cc5)CC4)n(C)c23)nc1 [Example 324, N-(6-{2-[4-(4-Cyanobenzyl)piperazine-1-carbonyl]-1-methyl-1H-indol-7-yloxy}pyridin-3-yl)-N-methyl-4-trifluoromethylbenzamide hydrobromide] | 200 to 201 °C
8 | Br.CN(C(=O)c1ccc(C(F)(F)F)cc1)c1ccc(Oc2cccc3c2cc(C(=O)N2CCN(Cc4ccc(C#N)cc4)CC2)n3C)nc1 [Example 326, N-(6-{2-[4-(4-Cyanobenzyl)piperazine-1-carbonyl]-1-methyl-1H-indol-4-yloxy}pyridin-3-yl)-N-methyl-4-trifluoromethylbenzamide hydrobromide] | 273 to 276 °C
9 | Br.Br.CCOc1ccc(CN2CCN(C(=O)c3cc4cc(Oc5ccc(NC(=O)c6ccc(Cl)c(Cl)c6)cn5)ccc4n3C)CC2)nc1 [Example 378, 3,4-Dichloro-N-(6-{2-[4-(5-ethoxypyridin-2-ylmethyl)piperazine-1-carbonyl]-1-methyl-1H-indol-5-yloxy}pyridin-3-yl)benzamide dihydrobromide] | 218 to 220 °C
10 | Br.CCN(C(=O)c1ccc(C(F)(F)F)cc1)c1ccc(Oc2ccc3cc(C(=O)N4CCN(Cc5ccc(OCC(F)(F)F)cc5)CC4)n(C)c3c2)nc1 [Example 26, N-Ethyl-N-[6-(1-methyl-2-{4-[4-(2,2,2-trifluoroethoxy)benzyl]-piperazine-1-carbonyl}-1H-indol-6-yloxy)pyridin-3-yl]-4-tri-fluoromethylbenzamide hydrobromide] | 189.8 to 192.8 °C
11 | Br.CCCOc1ccc(CN2CCN(C(=O)c3cc4ccc(Oc5ccc(N(C)C(=O)c6ccc(Cl)c(Cl)c6)cn5)cc4n3C)CC2)cc1 [Example 487, 3,4-Dichloro-N-methyl-N-(6-{1-methyl-2-[4-(4-propoxybenzyl)-piperazine-1-carbonyl]-1H-indol-6-yloxy}pyridin-3-yl)benzamide hydrobromide] | 204.9 to 208.5 °C
12 | Br.Cn1c(C(=O)N2CCN(Cc3ccc(OC(F)F)cc3)CC2)cc2ccc(Oc3ccc(NC(=O)c4ccc(Cl)c(Cl)c4)cn3)cc21 [Example 254, 3,4-Dichloro-N-(6-{2-[4-(4-difluoromethoxybenzyl)piperazine-1-carbonyl]-1-methyl-1H-indol-6-yloxy}pyridin-3-yl)benzamide hydrobromide] | 249 to 253.7 °C
13 | Cn1c(C(=O)N2CCN(Cc3ccc(C#N)cc3)CC2)cc2cc(Oc3ccc(NC(=O)c4ccc(C(F)(F)F)cc4)cn3)ccc21.O=C(O)/C=C\C(=O)O [Example 552, N-(6-{2-[4-(4-Cyanobenzyl)piperazine-1-carbonyl]-1-methyl-1H-indol-5-yloxy}pyridin-3-yl)-4-trifluoromethylbenzamide maleate] | 149 to 152 °C
14 | CN(C(=O)c1ccc(C(F)(F)F)cc1F)c1ccc(Oc2ccc3cc(C(=O)N4CCN(Cc5ccc(OCC(F)(F)F)cc5)CC4)n(C)c3c2)nc1.Cl | 234.5 to 235.8 °C
15 | Br.Cc1cc(Oc2ccc3cc(C(=O)N4CCN(Cc5ccc(OC(F)F)cc5)CC4)n(C)c3c2)ncc1N(C)S(=O)(=O)c1ccc(Cl)c(Cl)c1 [Example 311, 3,4-Dichloro-N-(6-{2-[4-(4-difluoromethoxybenzyl)piperazine-1-carbonyl]-1-methyl-1H-indol-6-yloxy}-4-methylpyridin-3-yl)-N-methylbenzenesulfonamide hydrobromide] | 213.5 to 215.3 °C
16 | Br.Cn1c(C(=O)N2CCN(Cc3ccc(OCC(F)(F)F)cc3)CC2)cc2ccc(Oc3ccc(NS(C)(=O)=O)cn3)cc21 [Example 76, N-[6-(1-Methyl-2-{4-[4-(2,2,2-trifluoroethoxy)benzyl]piperazine-1-carbonyl}-1H-indol-6-yloxy)pyridin-3-yl]methanesulfonamide hydrobromide] | 237.8 to 240.1 °C
17 | CCCOc1ccc(CN2CCN(C(=O)c3cc4ccc(Oc5ccc(N(C)S(=O)(=O)c6ccc(Cl)c(Cl)c6)cn5)cc4n3C)CC2)cc1 [Example 33, 3,4-Dichloro-N-methyl-N-(6-{1-methyl-2-[4-(4-propoxybenzyl)-piperazine-1-carbonyl]-1H-indol-6-yloxy}pyridin-3-yl)-benzenesulfonamide] | 231.7 to 235 °C (dec.)
18 | Br.CN(C(=O)c1ccc(Cl)c(Cl)c1)c1ccc(Oc2ccc3cc(C(=O)N4CCN(Cc5ccc(OC(CF)CF)cc5)CC4)n(C)c3c2)nc1 [Example 485, 3,4-Dichloro-N-[6-(2-{4-[4-(2-fluoro-1-fluoromethylethoxy)-benzyl]piperazine-1-carbonyl}-1-methyl-1H-indol-6-yloxy)pyridin-3-yl]-N-methylbenzamide hydrobromide] | 188.2 to 191.8 °C
